Assay results reported in patent US20060025474A1, “Bisphenyl compounds useful as vitamin D3 receptor agonists” (priority 2004, published 2006).

The molecules below were run on ECAC2 mRNA in Caco-2 cells.
Type: cell-based
Procedure: The mRNA Expression Assay of ECAC2 in Caco-2 Cells
The dispersed cells were plated in 48-well plate at a concentration of 6.3×10^4 cells/well and incubated for 4 days at 37° C. The culture medium (Dulbecco's Modified Eagle Medium (D-MEM) without NaHCO3 with 44 mM NaHCO3, 1 mM non-essential amino acids, and 2 mM L-glutamine, 90%; fetal bovine serum, 10%) was then replaced with the same medium containing various concentrations of LG190178 (the compound disclosed in WO00/10958 and the corresponding U.S. Pat. No. 6,218,430 B1) or the compounds of the present invention, and cells were cultured for 1 day at 37° C. The culture medium containing the compounds was changed twice per day.
Total RNA Isolation from Caco-2 Cell
Total RNA was isolated from Caco-2 cell following ABI PRISM™ 6100 Nucleic Acid PrepStation protocol from Applied Biosystems.
Real Time RT-PCR Assay of ECAC2
ECAC2 mRNA expression was determined using TaqMan One-step RT-PCR Master Mix Reagents Kit and PRISM7000 systems from Applied Biosystems.
Primer information and cycle conditions are 1)ECAC2, forward 5′-[…]-3′, reverse 5′-GTCCTCTGTCTGGMGATGA-3′, Taqman probe 5′-[…]-3′, 55 cycles, annealing temperature (Ta)=60° C.; 2)GAPDH, forward 5′-GMGGTGMGGTCGGAGTC-3′, reverse 5′-GMGATGGTGATGGGATTTC-3′, Taqman probe 5′-[…]-3′, 55 cycles, Ta=60° C. ECAC2 mRNA values were normalized for the expression of GAPDH mRNA within each sample.
Comparison of ECAC2 mRNA Value
The EC50 values of ECAC2 mRNA values were analyzed by Emax models. The ECAC2 mRNA ratio was calculated as the ratio of the EC50 value of the compounds to that of LG190178. ECAC2 is a channel-like transporter mediating intestinal calcium absorption. It is described in J Biol Chem. Aug. 6, 1999; 274(32):22739-46 for example.

| Compound | ECaC-2 mRNA induction activity in Caco-2 cells |
| --- | --- |
| CCC(CC)(c1ccc(/C=C/C(O)(C(F)(F)F)C(F)(F)F)c(C)c1)c1ccc(OC[C@H](O)CCCC(=O)O)c(C)c1 [Example 62, (R)-6-(4-{1-Ethyl-1-[3-methyl-4-((E)-4,4,4-trifluoro-3-hydroxy-3-trifluoromethyl-but-1-enyl)-phenyl]-propyl}-2-methyl-phenoxy)-5-hydroxy-hexanoic acid] | 410% |
| CCC(O)(/C=C/c1ccc(C(CC)(CC)c2ccc(OC[C@@H](O)CO)c(C)c2)cc1C)CC [Example 64, (S)-3-(4-{1-ethyl-1-[4-((E)-3-ethyl-3-hydroxy-pent-1-enyl)-3-methyl-phenyl]-propyl}-2-methyl-phenoxy)-propane-1,2-diol] | 90% |
| CCC(CC)(c1ccc(C#CC(O)C(C)(C)C)c(C)c1)c1ccc(OC[C@@H](O)CO)c(C)c1 (stereo partly drawn) [Example 66, 3-(4-{1-ethyl-1-[4-(3-hydroxy-4,4-dimethyl-pent-1-ynyl)-3-methyl-phenyl]-propyl}-2-methyl-phenoxy)-propane-1,2(S)-diol] | 126% |
| CCC(CC)(c1ccc(/C=C/C(O)C(C)(C)C)c(C)c1)c1ccc(OC[C@@H](O)CO)c(C)c1 (stereo partly drawn) [Example 67, 3-(4-{1-ethyl-1-[4-((E)-3-hydroxy-4,4-dimethyl-pent-1-enyl)-3-methyl-phenyl]-propyl}-2-methyl-phenoxy)-propane--1,2(S)-diol] | 860% |
| CCC(CC)(c1ccc(C#CC(O)(C(F)(F)F)C(F)(F)F)c(C)c1)c1ccc(OC[C@@H](O)CO)c(C)c1 [Example 68, 3-(4-{1-Ethyl-1-[3-methyl4-(4,4,4-trifluoro-3-hydroxy-3-trifluoromethyl-but-1-ynyl)-phenyl]-propyl}-2-methyl-phenoxy)-propane-1,2(S)-diol] | 355% |
| CCC(CC)(c1ccc(/C=C/C(O)(C(F)(F)F)C(F)(F)F)c(C)c1)c1ccc(OC[C@@H](O)CO)c(C)c1 [Example 69, (S)-3-(4-{1-ethyl-1-[3-methyl-4-((E)-4,4,4-trifluoro-3-hydroxy-3-trifluoromethyl-but-1-enyl)-phenyl]-propyl}-2-methyl-phenoxy)-propane-1,2-diol] | >10000% |
| CCC(O)(/C=C/c1ccc(C(CC)(CC)c2ccc(OCC(CO)CO)c(C)c2)cc1C)CC [Example 72, 2-(4-{1-Ethyl-1-[4-((E)-3-ethyl-3-hydroxy-pent-1-enyl)-3-methyl-phenyl]-propyl}-2-methyl-phenoxymethyl)-propane-1,3-diol] | 542% |
| CCC(CC)(c1ccc(/C=C/C(O)C(C)(C)C)c(C)c1)c1ccc(OCC(CO)CO)c(C)c1 (centres unmarked) [Example 75, 2-(4-{1-ethyl-1-[4-((E)-3-hydroxy-4,4-dimethyl-pent-1-enyl)-3-methyl-phenyl]-propyl}-2-methyl-phenoxymethyl)-propane-1,3-diol] | 309% |
| CCC(CC)(c1ccc(C#CC(O)(C(F)(F)F)C(F)(F)F)c(C)c1)c1ccc(OCC(CO)CO)c(C)c1 [Example 77, 2-(4-{1-ethyl-1-[3-methyl-4-(4,4,4-trifluoro-3-hydroxy-3-trifluoromethyl-but-1-ynyl)-phenyl]-propyl}-2-methyl-phenoxymethyl)-propane-1,3-diol] | 534% |
| CCC(CC)(c1ccc(/C=C/C(O)(C(F)(F)F)C(F)(F)F)c(C)c1)c1ccc(OCC(CO)CO)c(C)c1 [Example 78, 2-(4-{1-ethyl-1-[3-methyl-4-((E)-4,4,4-trifluoro-3-hydroxy-3-trifluoromethyl-but-1-enyl)-phenyl]-propyl}-2-methyl-phenoxymethyl)-propane-1,3-diol] | 6659% |
| CCC(CC)(c1ccc(CCC(O)(C(F)(F)F)C(F)(F)F)c(C)c1)c1ccc(OCC(CO)CO)c(C)c1 [Example 79, 2-(4-{1-ethyl-1-[3-methyl-4-(4,4,4-trifluoro-3-hydroxy-3-trifluoromethyl-butyl)-phenyl]-propyl}-2-methyl-phenoxymethyl)-propane-1,3-diol] | 178% |
| CCC(CC)(c1ccc(CCC(O)C(C)(C)C)c(C)c1)c1ccc(OCCCCC(=O)O)c(C)c1 (centres unmarked) [Example 80, 5-(4-{1-ethyl-1-[4-(3-hydroxy-4,4-dimethyl-pentyl)-3-methyl-phenyl]-propyl}-2-methyl-phenoxy)-pentanoic acid] | 518% |
| CCC(O)(/C=C/c1ccc(C(CC)(CC)c2ccc(OCCCCC(=O)O)c(C)c2)cc1C)CC [Example 81, 5-(4-{1-Ethyl-1-[4-((E)-3-ethyl-3-hydroxy-pent-1-enyl)-3-methyl-phenyl]-propyl}-2-methyl-phenoxy)-pentanoic acid] | 102% |

Continued, values first:

| ECaC-2 mRNA induction activity in Caco-2 cells | Compound |
| --- | --- |
| 1843% | CCC(CC)(c1ccc(/C=C/C(O)(C(F)(F)F)C(F)(F)F)c(C)c1)c1ccc(OCCCCC(=O)O)c(C)c1 [Example 84, 5-(4-{1-ethyl-1-[3-methyl-4-((E)-4,4,4-trifluoro-3-hydroxy-3-trifluoromethyl-but-1-enyl)-phenyl]-propyl}-2-methyl-phenoxy)-pentanoic acid] |
| 289% | CCC(CC)(c1ccc(/C=C/C2(O)CCCC2)c(C)c1)c1ccc(OCCCCC(=O)O)c(C)c1 [Example 86, 5-[4-(1-ethyl-1-{4-[(E)-2-(1-hydroxy-cyclopentyl)-vinyl]-3-methyl-phenyl}-propyl)-2-methyl-phenoxy]-pentanoic acid] |
| 845% | CCC(CC)(c1ccc(/C=C/C2(O)CCCCC2)c(C)c1)c1ccc(OCCCCC(=O)O)c(C)c1 [Example 88, 5-[4-(1-ethyl-1-{4-[(E)-2-(1-hydroxy-cyclohexyl)-vinyl]-3-methyl-phenyl}-propyl)-2-methyl-phenoxy]-pentanoic acid] |
| 226% | CCC(CC)(c1ccc(/C=C/C(O)(C(F)(F)F)C(F)(F)F)c(C)c1)c1ccc(OCCCCCC(=O)O)c(C)c1 [Example 92, 6-(4-{1-Ethyl-1-[3-methyl-4-((E)4,4,4-trifluoro-3-hydroxy-3-trifluoromethyl-but-1-enyl)-phenyl]-propyl}-2-methyl-phenoxy)-hexanoic acid] |
| 166% | CCC(CC)(c1ccc(CCC(O)C(C)(C)C)c(C)c1)c1ccc(OCCCCCN)c(C)c1 (centres unmarked) [Example 102, 1-(4-{1-[4-(5-amino-pentyloxy)-3-methyl-phenyl]-1-ethyl-propyl}-2-methyl-phenyl)-4,4-dimethyl-pentan-3-ol] |
| 399% | CCC(CC)(c1ccc(C#CC(O)(C(F)(F)F)C(F)(F)F)c(C)c1)c1ccc(CCC(=O)O)c(C)c1 [Example 106, 3-(4-{1-ethyl-1-[3-methyl-4-(4,4,4-trifluoro-3-hydroxy-3-trifluoromethyl-but-1-ynyl)-phenyl]-propyl}-2-methyl-phenyl)-propionic acid] |
| 823% | CCC(CC)(c1ccc(/C=C/C(O)(C(F)(F)F)C(F)(F)F)c(C)c1)c1ccc(CCC(=O)O)c(C)c1 [Example 107, 3-(4-{1-ethyl-1-[3-methyl-4-((E)-4,4,4-trifluoro-3-hydroxy-3-trifluoromethyl-but-1-enyl)-phenyl]-propyl}-2-methyl-phenyl)-propionic acid] |
